# Measured values taken from patent publication US7851629B2, “Disubstituted phenylpiperidines as modulators of dopamine and serotonin neurotransmission” (NSAB, Filial af Neurosearch Sweden AB, Sverige, priority 2004, dated 2010).
# “And” between values parts separate entries of the source, which are not always exact repeats. Equal values may be shown once. Where a name gives a salt, the structure may show the parent alone.
# What was measured:
# [1] = test system: schizophrenic patients; settings: selective sigma receptor antagonists; Borison et al 1991, Gewirtz et al 1994; cited from earlier work
# [2] = test system: extracellular 5-HT, dopamine and norepinephrine in the cortex; test: Microdialysis in awake and freely moving rats, cortex monoamines; assay type: in vivo, rat; settings: for levels of dopamine in the cortex / levels of norepinephrine in the cortex / 5-HT in the cortex: 50 μmol/kg s.c., pf. cortex; for levels of dopamine in the cortex / levels of norepinephrine in the cortex: FIG. 2-4; for 5-HT in the cortex: FIGS. 2-4
# From the text: The microdialysis technique (Ungerstedt, Herrera-Marschitz et al. 1982) is a well established technique for measuring extracellular levels of neurotransmitters (Ungerstedt 1991). The microdialysis technique was used to measure the effect of drugs upon the monoamine transmitters. The appended graphs (FIGS. 1-4) show the effects of one established antidepressant (citalopram) upon 5-HT in the cortex, as well as for three compounds claimed in the present invention (Examples 3, 5, and 6).
# Male Sprague-Dawley rats weighing 220-320 g were used throughout the experiments. Before the experiment the animals were group housed, five animals in each cage, with free access to water and food. The animals were housed at least one week after arrival prior to surgery and use in the experiments. Each rat was used only once for microdialysis.
# We use a modified version (Waters, Lofberg et al. 1994) of the I-shaped probe (Santiago and Westerink 1990). The dialysis membrane we use is the AN69 polyacrylonitrile/sodium methalylsulfonate copolymer (HOSPITAL; o.d./i.d. 310/220 μm: Gambro, Lund, Sweden). In the dorsal striatum we use probes with an exposed length of 3 mm of dialysis membrane and in the prefrontal cortex the corresponding length is 2.5 mm. The rats were operated under isoflurane inhalation anesthesia while mounted into a Kopf stereotaxic instrument. Coordinates were calculated relative to bregma; dorsal striatum AP+1, ML±2.6, DV−6.3; Pf cortex, AP+3.2, 8° ML±1.2, DV−4.0 according to (Paxinos and Watson 1986). The dialysis probe was positioned in a burr hole under stereotaxic guidance and cemented with phosphatine dental cement.
# The rats were housed individually in cages for 48 h before the dialysis experiments, allowing them to recover from surgery and minimizing the risk of drug interactions with the anaesthetic during the following experiments. During this period the rats had free access to food and water. On the day of experiment the rats were connected to a micro perfusion pump via a swivel and were replaced in the cage where they could move freely within its confinements. The perfusion medium was a Ringer's solution containing in mmol/l: NaCl; 140, CaCl2; 1.2, KCl; 3.0, MgCl2; 1.0 and ascorbic acid; 0.04 according to (Moghaddam and Bunney 1989). The pump was set to a perfusion speed of 2 μl/min and 40 μl samples were collected every 20 min.
# 30 μl of each sample was injected into the chromatograph. On a 10-port injector (Valco CLOW), with two sample loops mounted in series (2 μl and 20 μl), each brain dialysate sample is loaded in both loops simultaneously. When the valve is switched to inject the main part of the 20 μl sample is introduced into a reverse-phase ion-pairing system for dopamine (DA), norepinephrine (NA), normetanephrine (NM), 3-methoxytyramine(3-MT) and serotonin (5-hydroxytryptamine, 5-HT) determination (large loop), while a small fraction (2 μl, from the small loop) is introduced on a reverse-phase column for the chromatography of the acidic monoamine metabolites 3,4-di-hydroxyphenylacetic acid (DOPAC), homovanillic acid (HVA) and 5-hydroxyindoleacetic acid (5-HIAA). The currents generated by the two EC detectors are converted to digital data and evaluated using Chromelion software (Dionex, Sunnyvale, Calif.) on a PC. The method sample turn over time was 4.5 min and two parallel experiments are normally analysed simultaneously on the system. After the experiment the rats were uncoupled from the perfusion pump and decapitated. Their brains were rapidly taken out and fixed in Neo-fix solution (Kebo-lab, Sweden) for subsequent inspection of probe localisation. The Animal Ethics Committee in Göteborg, Sweden approved the procedures applied in these experiments. • Moghaddam, B. and B. S. Bunney (1989). “Ionic Composition of Microdialysis Perfusing Solution Alters the Pharmacological Responsiveness and Basal Outflow of Striatal Dopamine.” J. Neurochem. 53: 652-654. • Paxinos, G. and C. Watson (1986). […]
# [3] = test system: MK-801 pre-treated rats; test: Locomotor activity in MK-801 pre-treated rats; settings: ± SEM; for Locomotor activity, MK + example: MK-801 0.7 mg/kg i.p. 90 minutes before test compound 33 μmol/kg, recorded 30-60 minutes after administration
# [4] = test system: drug-naive rats; test: Locomotor activity in drug-naive rats; settings: recorded for 60 minutes, ± SEM
smiles,measurement,setting,value
CN1CCC(c2cccc(C(F)(F)F)c2F)CC1 (as salt: hydrochloric acid salt),melting point,,260 to 261 °C
"CCCN1CCC(c2cccc(OC(F)(F)F)c2F)CC1 (as salt: hydrochloric acid salt) [Example 2, 4-[2-fluoro-3-(trifluoromethoxy)phenyl]-1-propyl-piperidine]",melting point,,221 to 222 °C
"CCN1CCC(c2cccc(C(F)(F)F)c2F)CC1 (as salt: hydrochloric acid salt) [Example 3, 4-[2-fluoro-3-(trifluoromethyl)phenyl]-1-ethylpiperidine]",melting point,,235 to 237 °C
"CCCN1CCC(c2cccc(F)c2F)CC1 (as salt: hydrochloric acid salt) [Example 5, 4-(2,3-difluorophenyl)-1-propylpiperidine]",melting point,,237 to 238 °C
"CCCN1CCC(c2cccc(Cl)c2Cl)CC1 (as salt: hydrochloric acid salt) [Example 6, 4-(2,3-dichlorophenyl)-1-propylpiperidine]",melting point,,265 to 267 °C
CCN1CCC(c2cccc(C#N)c2F)CC1 (as salt: oxalic acid salt),melting point,,156 to 158 °C
OC(CCCN1CCN(c2ncc(F)cn2)CC1)c1ccc(F)cc1 (stereo not shown) [BMY14802],outcome of clinical studies in schizophrenic patients,[1],failed
C[C@@H]1CN(CCCn2c3ccccc3c3ccccc32)C[C@H](C)N1 [BW234U],outcome of clinical studies in schizophrenic patients,[1],failed
"CCN1CCC(c2cccc(C(F)(F)F)c2F)CC1 [Example 3, 4-[2-fluoro-3-(trifluoromethyl)phenyl]-1-ethylpiperidine]",levels of dopamine in the cortex,[2],elevate
same,levels of norepinephrine in the cortex,[2],elevate
same,5-HT in the cortex,[2],5-HT increase in the cortex
"CCCN1CCC(c2cccc(F)c2F)CC1 [Example 5, 4-(2,3-difluorophenyl)-1-propylpiperidine]",levels of dopamine in the cortex,[2],elevate
same,levels of norepinephrine in the cortex,[2],elevate
same,5-HT in the cortex,[2],5-HT increase in the cortex
"CCCN1CCC(c2cccc(Cl)c2Cl)CC1 [Example 6, 4-(2,3-dichlorophenyl)-1-propylpiperidine]",levels of dopamine in the cortex,[2],elevate
same,levels of norepinephrine in the cortex,[2],elevate
same,5-HT in the cortex,[2],5-HT increase in the cortex
"C[C@]12N[C@H](Cc3ccccc31)c1ccccc12 [MK-801, reference compound]","Locomotor activity, MK-801","[3]; MK-801 0.7 mg/kg i.p. alone, recorded 30-60 minutes, 0.7 mg/kg",55810 ± 16124 counts/30 min and 30462 ± 6937 counts/30 min
CCN1CCC(c2cccc(C(F)(F)F)c2F)CC1 [drawing 17],Locomotor activity,[4]; 11 μmol/kg,10587 ± 1027 counts/60 min
same,Locomotor activity,[4]; 33 μmol/kg,6439 ± 418 counts/60 min
same,Locomotor activity,[4]; 100 μmol/kg,4866 ± 941 counts/60 min
CCCN1CCC(c2cccc(Cl)c2Cl)CC1 [drawing 18],Locomotor activity,[4]; 11 μmol/kg,7739 ± 1903 counts/60 min
same,Locomotor activity,[4]; 33 μmol/kg,7053 ± 659 counts/60 min
same,Locomotor activity,[4]; 100 μmol/kg,4272 ± 1831 counts/60 min
CCCN1CCC(c2cccc(F)c2F)CC1 [drawing 19],Locomotor activity,[4]; 11 μmol/kg,8894 ± 1039 counts/60 min
same,Locomotor activity,[4]; 33 μmol/kg,9958 ± 1835 counts/60 min
same,Locomotor activity,[4]; 100 μmol/kg,8154 ± 1388 counts/60 min
CCCN1CCC(c2cccc(Cl)c2Cl)CC1 [drawing 28],"Locomotor activity, MK + example",[3],12943 ± 3226 (P = 0.06) counts/30 min
CCCN1CCC(c2cccc(F)c2F)CC1 [drawing 29],"Locomotor activity, MK + example",[3],19826 ± 6949 (P = 0.09) counts/30 min
"CN1CCN2c3ncccc3Cc3ccccc3C2C1 (stereo not shown) [mirtazapine, reference compound]",extracellular dopamine in the cortex,"[2]; 10 mg/kg s.c., cortex, FIG. 5",increase
same,extracellular norepinephrine in the cortex,"[2]; 10 mg/kg s.c., cortex, FIG. 5",increase
